Residues, ends and D or L forms follow the SMILES beside them.
How the values were obtained:
[1] = system: S. Typhimurium (14028) Δphd-doc::Km strains coexpressing DocSTm; assay: Growth rescue experiment in S. Typhimurium; assay type: cell-based; conditions: coexpression of DocSTm (pBAD33, arabinose) and Phd construct (pCA24N, basal expression); OD600 over time, M9 minimal medium; average of three independent experiments
Experimental: The cotransformations above were also performed with an empty pBAD33 plasmid, as a control for the absence of DocSTm expression.
For the growth rescue experiment, overnight (1% tryptone, 0.5% yeast extract, 0.5% NaCl, 1% glucose, 100 μg/mL of carbenicillin, and 34 μg/mL of chloramphenicol) cultures of the generated S. Typhimurium strains were diluted to an OD600 of approximately 0.006 into fresh M9 minimal medium supplemented with 0.5% or 1% arabinose, 0.4% glycerol, 0.4% casamino acids, 100 μg/mL of carbenicillin, and 34 μg/mL of chloramphenicol. Cell growth at a given time was monitored at OD600 with a Genesys 140 Visible Spectrophotometer (Thermo Scientific).

DocSTm [2] = assay: Differential scanning fluorimetry (thermal stabilisation of Doc); assay type: binding, S. Typhimurium; conditions: for melting temperature shift ΔTm: DSF, DocSTm 5 μM, analyte 50 μM, Tm with analyte minus Tm of free DocSTm (42.9 ± 0.9 °C), SYPRO Orange, 20 mM K2HPO4, 50 mM (NH4)2SO4, pH 8.0, triplicate; for Average Tm / Tm: DocSTm 5 µM + 50 µM binder; for Average Tm: average of 3 replicates
Method in brief: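 Thermal shift of 5 μM Doc in 20 mM K2HPO4, 50 mM (NH4)2SO4, pH 8.0 with 3× SYPRO Orange, heated from 25 to 95 °C in a qPCR instrument, in triplicate. Melting temperatures from Boltzmann sigmoid fits of the transition region.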

DocSTm [3] = assay: Surface plasmon resonance binding to immobilised Doc; set-up: species or system S. Typhimurium; conditions: for fold decrease in affinity (given as decrease/loss in Kd) compared with peptide 1: SPR Kd relative to wild-type peptide 1
Method in brief: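 Doc captured on an NTA chip at 22 °C in 10 mM HEPES, 500 mM NaCl, 50 μM EDTA, 0.005% TWEEN 20, pH 8.0. Analytes injected as 80 s pulses at 30 μL/min in multicycle or single-cycle kinetics.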

[4] = SPR multicycle, steady-state fit, replicate 1
[5] = SPR multicycle, steady-state fit, replicate 2
[6] = SPR multicycle, steady-state fit, replicate 3
[7] = SPR, multicycle kinetics, steady-state 1:1 fit, mean ± SD of 3 replicates

In the case of `CSCC[C@H](NC(=O)[C@H](C)NC(=O)[C@H](C)NC(=O)[C@H](C)NC(=O)[C@H](Cc1ccccc1)NC(=O)[C@H](CCC(=O)O)NC(=O)[C@H](CC(=O)O)NC(=O)[C@H](CC(=O)O)NC(=O)[C@H](CCSC)NC(=O)[C@H](Cc1c[nH]c2ccccc12)NC(C)=O)C(=O)N[C@@H](C)C(=O)N[C@H](C(=O)N[C@@H](Cc1c[nH]cn1)C(=O)NCC(=O)N[C@@H](CC(N)=O)C(=O)N[C@@H](CCC(=O)O)C(=O)N[C@@H](CC(C)C)C(=O)N[C@@H](CCCNC(=N)N)C(=O)N[C@@H](CCC(=O)O)C(=O)N[C@@H](CC(C)C)C(=O)N[C@@H](C)C(=O)N[C@@H](CC(=O)O)C(=O)N[C@@H](CCCCN)C(=O)O)C(C)C` [peptide 7] (Ac-WMDDEFAAAMAVHGNELRELADK-OH; C-terminus assumed), the “rescue of Salmonella growth from DocSTm-induced growth inhibition (in words)” value [1] is reported as “unable to rescue growth”, the “melting temperature shift ΔTm” value (DocSTm [2]) is reported as 15.5 ± 1.5 °C and the “Average Tm” value (DocSTm [2]) is reported as 58.4 ± 1.2 °C. For the same compound, the Tm (DocSTm [2]; replicate 1) was 59.7 °C, the Tm (DocSTm [2]; replicate 2) was 57.7 °C and the Tm (DocSTm [2]; replicate 3) was 57.6 °C. For the same compound, the “fold decrease in affinity (given as decrease/loss in Kd) compared with peptide 1” value (DocSTm [3]) was about 300 fold, the Kd (DocSTm [3]; [4]) was 25.4 ± 3 nM and the Kd (DocSTm [3]; [5]) was 19.4 ± 2.2 nM. For the same compound, the Kd (DocSTm [3]; [6]) was 15.1 ± 0.09 nM and the Kd (DocSTm [3]; [7]) was 19.9 ± 5.18 nM.
In the case of `CC[C@H](C)[C@H](NC(=O)[C@H](C)NC(=O)[C@H](C)NC(=O)[C@H](Cc1ccccc1)NC(=O)[C@H](CCC(=O)O)NC(=O)[C@H](CC(=O)O)NC(=O)[C@H](CC(=O)O)NC(=O)[C@H](CCSC)NC(=O)[C@H](Cc1c[nH]c2ccccc12)NC(C)=O)C(=O)N[C@@H](C)C(=O)N[C@@H](C)C(=O)N[C@H](C(=O)N[C@@H](Cc1c[nH]cn1)C(=O)NCC(=O)N[C@@H](CC(N)=O)C(=O)N[C@@H](CCC(=O)O)C(=O)N[C@@H](CC(C)C)C(=O)N[C@@H](CCCNC(=N)N)C(=O)N[C@@H](CCC(=O)O)C(=O)N[C@@H](CC(C)C)C(=O)N[C@@H](C)C(=O)N[C@@H](CC(=O)O)C(=O)N[C@@H](CCCCN)C(=O)O)C(C)C` [peptide 8] (Ac-WMDDEFAAIAAVHGNELRELADK-OH; C-terminus assumed), the “rescue of Salmonella growth from DocSTm-induced growth inhibition (in words)” value [1] is reported as “fully rescued Salmonella growth after 18 h of culture”, the “melting temperature shift ΔTm” value (DocSTm [2]) is reported as 20.8 ± 1.0 °C and the “Average Tm” value (DocSTm [2]) is reported as 63.7 ± 0.4 °C. For the same compound, the Tm (DocSTm [2]; replicate 1) was 64.1 °C, the Tm (DocSTm [2]; replicate 2) was 63.3 °C and the Tm (DocSTm [2]; replicate 3) was 63.7 °C. For the same compound, the “fold decrease in affinity (given as decrease/loss in Kd) compared with peptide 1” value (DocSTm [3]) was 8- to 30 fold, the Kd (DocSTm [3]; SPR kinetic fit, replicate 1) was 0.67 nM and the Kd (DocSTm [3]; SPR kinetic fit, replicate 2) was 0.611 nM. The Kd (DocSTm [3]; SPR kinetic fit, replicate 3) was 0.485 nM, the “koff × 10^-6” value (DocSTm [3]; SPR, 1:1 kinetic fit, 22 °C, pH 8.0, mean ± SD of at least 3 replicates) was 1223 ± 504 ×10^-6 s-1 and the “kon × 10^6” value (DocSTm [3]; SPR, 1:1 kinetic fit, single-cycle kinetics (multicycle for PhdSTm1-73), 22 °C, pH 8.0, mean ± SD of at least 3 replicates) was 2.221 ± 1.307 ×10^6 M-1 s-1. The Kd (DocSTm [3]; SPR, kinetic fit, KD calculated from mean koff and kon, SD propagated, 22 °C, pH 8.0) was 0.553 ± 0.397 nM and the “Half-life of the complex” value (DocSTm [3]; t1/2 = ln2 / koff) was 9.6 ± 36 min.
For `CC[C@H](C)[C@H](NC(=O)[C@H](C)NC(=O)[C@H](C)NC(=O)[C@H](Cc1ccccc1)NC(=O)[C@H](CCC(=O)O)NC(=O)[C@H](CC(=O)O)NC(=O)[C@H](CC(=O)O)NC(=O)[C@H](CCSC)NC(=O)[C@H](Cc1c[nH]c2ccccc12)NC(C)=O)C(=O)N[C@@H](CCSC)C(=O)N[C@@H](C)C(=O)N[C@H](C(=O)N[C@@H](C)C(=O)NCC(=O)N[C@@H](CC(N)=O)C(=O)N[C@@H](CCC(=O)O)C(=O)N[C@@H](CC(C)C)C(=O)N[C@@H](CCCNC(=N)N)C(=O)N[C@@H](CCC(=O)O)C(=O)N[C@@H](CC(C)C)C(=O)N[C@@H](C)C(=O)N[C@@H](CC(=O)O)C(=O)N[C@@H](CCCCN)C(=O)O)C(C)C` [peptide 10] (Ac-WMDDEFAAIMAVAGNELRELADK-OH; C-terminus assumed), the “rescue of Salmonella growth from DocSTm-induced growth inhibition (in words)” value [1] was “provided only a partial rescue”, the “melting temperature shift ΔTm” value (DocSTm [2]) was 20.9 ± 1.0 °C and the “Average Tm” value (DocSTm [2]) was 63.7 ± 0.4 °C. For the same compound, the Tm (DocSTm [2]; replicate 1) was 63.3 °C, the Tm (DocSTm [2]; replicate 2) was 63.7 °C and the Tm (DocSTm [2]; replicate 3) was 64.2 °C. The “fold decrease in affinity (given as decrease/loss in Kd) compared with peptide 1” value (DocSTm [3]) was about 300 fold, the Kd (DocSTm [3]; [4]) was 12.2 ± 1.8 nM and the Kd (DocSTm [3]; [5]) was 13.1 ± 1.4 nM. For the same compound, the Kd (DocSTm [3]; [6]) was 40 ± 2.87 nM and the Kd (DocSTm [3]; [7]) was 21.8 ± 15.8 nM.
